Data: patent US20250152650A1, “COMPOSITIONS FOR TREATING SEA LICE IN SALMON AND RELATED METHODS” (KEMIN INDUSTRIES, INC., priority 2023, published 2025)
Read-outs that look alike come from different tables or passages of the source.

Columns and labels:
[1] = system: L. salmonis copepodids of Canadian origin; assay: Copepodid bioassay, copepodids of Canadian origin; parameters: species or system Lepeophtheirus salmonis; details: for Mean proportion of survival: 24 hours exposure
[2] = system: mobile stage sea lice (adults and pre-adults); assay: Mobile stages bioassay; parameters: species or system Lepeophtheirus salmonis
[3] = system: copepodid sea lice; details: 10 parts per trillion, purified compounds; cited from earlier work
[4] = system: sea lice; assay: In-feed trial with sea lice challenge in Atlantic salmon; format: in vivo, Atlantic salmon (Salmo salar); details: for Reduction Versus Control: reduction in mean number of lice at 6-7 dpi versus Control Diet; for Reduction Versus Control / Reduction Versus SLICE: diet doses as in Table 10; for Reduction Versus SLICE: reduction in mean number of lice at 6-7 dpi versus SLICE (10 ppm) diet; for Mean Number of Lice: total copepodid and chalimus lice per fish at 6-7 dpi, study diet fed 3 weeks before challenge with approx. 140 lice per fish, O-LD oregano oil 2000 ppm, O-HD 5000 ppm, M-LD Monarda fistulosa oil 2000 ppm, thymol 1000 ppm, thymoquinone 500 ppm, SLICE 10 ppm
[5] = system: copepodids of Norwegian origin; details: for Mean proportion of survival: 24 hours exposure
[6] = system: copepodids of Norwegian origin; assay: whole plant or invertebrate; details: Lepeophtheirus salmonis, 24 h, read-out: lethality / lice mortality
[7] = system: salmon; details: farmed salmon; cited from earlier work

C=CCSSCC=C [Diallyl disulfide, diallyl disulfide]
Mean proportion of survival ([1]; 1 ppb): 96.9 ± 2.7%
Mean proportion of survival ([1]; 1 ppm): 86.3 ± 4.0%
Mean proportion of survival ([1]; 10 ppb): 93.6 ± 8.0%
Mean proportion of survival ([1]; 10 ppm): 34.6 ± 6.4%
Mean proportion of survival ([1]; 10 ppm, listed as DD): 34.6%
Mean proportion of survival ([1]; 100 ppb): 95.2 ± 4.6%
Mean proportion of survival ([1]; 100 ppm (0.01%)): 17.4 ± 3.2%
Mean proportion of survival ([1]; 100 ppm (0.01%), listed as DD): 17.4%
survival compared to control, in words ([2]; 10 and 100 ppm): did not result in different survival compared to control
Mean proportion of survival ([2]; 10 ppm, 6 hours exposure): 100.0 ± 0.0%
Mean proportion of survival ([2]; 10 ppm, 24 hours exposure): 96.7 ± 4.7%
Mean proportion of survival ([2]; 100 ppm, 6 hours exposure): 96.2 ± 5.4%
Mean proportion of survival ([2]; 100 ppm, 24 hours exposure): 88.7 ± 5.8%
masking of copepodid attraction to hosts or alpha-isophorone conditioned seawater [3]: masked copepodid sea lice attraction to hosts

Cc1ccc(C(C)C)c(O)c1 [Thymol]
Mean proportion of survival ([2]; 1 ppb, 6 hours exposure): 100.0 ± 0.0%
Mean proportion of survival ([2]; 1 ppb, 24 hours exposure): 96.2 ± 5.4%
Mean proportion of survival ([2]; 1 ppm, 6 hours exposure): 92.8 ± 0.7%
Mean proportion of survival ([2]; 1 ppm, 24 hours exposure): 92.8 ± 0.7%
Mean proportion of survival ([2]; 1 ppm, 24 hours exposure, listed as thymol): not significantly different to control
Mean proportion of survival ([2]; 10 ppb, 6 hours exposure): 95.8 ± 5.9%
Mean proportion of survival ([2]; 10 ppb, 24 hours exposure): 88.1 ± 5.0%
Mean proportion of survival ([2]; 10 ppm, 6 hours exposure): 23.7 ± 6.9%
Mean proportion of survival ([2]; 100 ppb, 6 hours exposure): 97.1 ± 4.2%
Mean proportion of survival ([2]; 100 ppb, 24 hours exposure): 97.1 ± 4.2%
Reduction Versus Control [4]: 1.2%
Reduction Versus SLICE [4]: −14.6%
Mean Number of Lice [4]: 86.5
Mean proportion of survival ([5]; 0.01 ppb): 98.7 ± 2.2%
Mean proportion of survival ([5]; 0.1 ppb): 93.9 ± 4.4%
Mean proportion of survival ([5]; 1 ppb): 100.0 ± 0.0%
Mean proportion of survival ([5]; 1 ppm): 87.9 ± 3.9%
Mean proportion of survival ([5]; 10 ppb): 93.1 ± 9.3%
Mean proportion of survival ([5]; 10 ppm): 56.1 ± 2.0 %
Mean proportion of survival ([5]; 100 ppb): 84.4 ± 6.1%

CC1=CC(=O)C(C(C)C)=CC1=O [Thymoquinone]
Mean proportion of survival ([2]; 1 ppb, 6 hours exposure): 93.3 ± 9.4%
Mean proportion of survival ([2]; 1 ppb, 24 hours exposure): 93.3 ± 9.4%
Mean proportion of survival ([2]; 1 ppm, 6 hours exposure): 100.0 ± 0.0%
Mean proportion of survival ([2]; 1 ppm, 24 hours exposure): 83.7 ± 14.7%
Mean proportion of survival ([2]; 1 ppm, 24 hours exposure, listed as thymoquinone): not significantly different to control
Mean proportion of survival ([2]; 10 ppb, 6 hours exposure): 81.7 ± 5.4%
Mean proportion of survival ([2]; 10 ppb, 24 hours exposure): 87.1 ± 5.4%
Mean proportion of survival ([2]; 10 ppm, 6 hours exposure): 60.7 ± 5.1%
Mean proportion of survival ([2]; 10 ppm, 24 hours exposure): 0.0 ± 0.0 %
Mean proportion of survival ([2]; 10 ppm, 24 hours exposure, listed as thymoquinone): completely lethal
Mean proportion of survival ([2]; 100 ppb, 6 hours exposure): 91.7 ± 2.4%
Mean proportion of survival ([2]; 100 ppb, 24 hours exposure): 91.7 ± 2.4%
Reduction Versus Control [4]: 1.7%
Reduction Versus SLICE [4]: 21.7%
Mean Number of Lice [4]: 59.1
Mean proportion of survival ([5]; 0.01 ppb): 98.1 ± 3.2%
Mean proportion of survival ([5]; 0.1 ppb): 98.6 ± 2.4%
Mean proportion of survival ([5]; 1 ppb): 97.3 ± 2.5%
Mean proportion of survival ([5]; 1 ppm): 75.6 ± 9.3 %
Mean proportion of survival ([5]; 1 ppm, listed as thymoquinone): did not result in a biologically significant reduction in survival
Mean proportion of survival ([5]; 10 ppb): 100.0 ± 0.0%
Mean proportion of survival ([5]; 10 ppm): 0.0 ± 0.0 %
Mean proportion of survival ([5]; 100 ppb): 92.9 ± 9.1%
mortality at 10 ppm [6]: 100%

C=CCSCC=C [diallyl sulfide]
masking of copepodid attraction to hosts or alpha-isophorone conditioned seawater [3]: masked copepodid sea lice attraction to hosts

OO [hydrogen peroxide]
mortality caused by a single treatment [7]: 1%

emamectin benzoate [EMB, reference compound]
survival, range over the dilution set ([1]; 0.5-50 ppb, 24 hours): 35.5-53.2%
Mean proportion of survival ([1]; 0.5 ppb): 53.2 ± 10.2%
Mean proportion of survival ([1]; 5 ppb): 50.7 ± 6.1%
Mean proportion of survival ([1]; 50 ppb): 35.5 ± 2.1%
Mean proportion of survival ([2]; 100 ppb, 6 hours exposure): 96.7 ± 4.7%
Mean proportion of survival ([2]; 200 ppb, 6 hours exposure): 56.7 ± 4.7%
Mean proportion of survival ([2]; 200 ppb, 24 hours exposure): 53.3 ± 18.9%
Mean proportion of survival ([2]; 400 ppb, 6 hours exposure): 36.7 ± 14.1%
Mean proportion of survival ([2]; 400 ppb, 24 hours exposure): 23.3 ± 4.7%
Mean proportion of survival ([2]; 500 ppb, 24 hours, follow up trial): 46.9 ± 9.8%
Mean proportion of survival ([5]; 0.1 ppb): 0.0 ± 0.0%
Mean proportion of survival ([5]; 1 ppb): 0.0 ± 0.0%
Mean proportion of survival ([5]; 10 ppb): 0.0 ± 0.0%
survival, in words ([5]; all tested concentrations between 10 and 0.1 ppb): no survival
